Test results as given in PMC10609924, “Cytotoxic Activity of Wild Plant and Callus Extracts of Ageratina pichinchensis and 2,3-Dihydrobenzofuran Isolated from a Callus Culture” (Pharmaceuticals, 2023).
In brackets after ≈: the same amount, converted by molar mass.

Legend:
[1] = tested on: Huh-7 cells (hepatocellular carcinoma); experiment: Cytotoxic assay (CellTiter 96 AQueous One Solution), Huh-7
Description: (§1) We evaluated the cytotoxic activity of the ethyl acetate and methanol extracts obtained from different parts of the wild plant A. pichinchensis, including its leaves, stems, and callus cultures. The extracts were evaluated using concentrations of 200, 100, 50, 25, and 12.5 µg/mL against various cell lines (Table 1), including human prostate carcinoma (PC-3), cervical cancer (HeLa), hepatocellular carcinoma (Huh-7), human hepatoma (HepG2) and breast tumor cells (MCF-7). These cell lines represent cell types that, unfortunately, have high incidence and mortality rates globally.
(§2) PC-3 (prostate), HeLa (cervical), MCF-7 (breast), and Huh-7 and HepG2 (hepatocellular) human cancer cell lines were purchased from ATCC (Manassas, VA, USA) (Figure 5). We also included an immortalized human epidermal keratinocyte line (HaCat) as a control of non-cancerous cells. […]
(§3) Cells (4 × 10^3 cells/well) were seeded in 96-well plates. […] Cell viability was determined by absorbance at 450 nm using an automated ELISA reader (Promega, Madison, WI, USA). […] Data were analyzed using the Prism 8.0 statistical program (Graphpad Software Inc., La Jolla, CA, USA) and the half-maximal inhibitory concentrations (IC50) were determined by regression analysis.

[2] = tested on: HeLa cells (cervical cancer); experiment: Cytotoxic assay (CellTiter 96 AQueous One Solution), HeLa
Description: as §1
PC-3 (prostate), HeLa (cervical), MCF-7 (breast), and Huh-7 and HepG2 (hepatocellular) human cancer cell lines were purchased from ATCC (Manassas, VA, USA) (Figure 5). We also included an immortalized human epidermal keratinocyte line (HaCat) as a control of non-cancerous cells. PC-3 was grown in RPMI-1640 medium (Sigma Aldrich, St. Louis, MO, USA), while Huh-7, HepG2, HeLa, and HaCat were grown in DMEM medium (Invitrogen, Thermo Fisher Scientific, Waltham, MA, USA) supplemented with 10% SFB and 2 mM glutamine. All cultures were incubated at 37 °C in 5% CO2.
Cells (4 × 10^3 cells/well) were seeded in 96-well plates. The cells were treated with the investigated samples (at 200, 100, 50, 25, and 12.5 µg/mL) and incubated at 37 °C in 5% CO2 for 48 h. Paclitaxel was used as a positive control. For determining the number of viable cells in proliferation we used a CellTiter 96® AQueous One Solution Cell Proliferation Assay kit (Promega, Madison, WI, USA), following the manufacturer’s instructions. Cell viability was determined by absorbance at 450 nm using an automated ELISA reader (Promega, Madison, WI, USA). Stock solutions of all compounds were prepared in DMSO at a maximum concentration of 0.5%. The experiments were conducted in triplicate in three independent experiments. Data were analyzed using the Prism 8.0 statistical program (Graphpad Software Inc., La Jolla, CA, USA) and the half-maximal inhibitory concentrations (IC50) were determined by regression analysis.

[3] = tested on: HepG2 cells (human hepatoma); experiment: Cytotoxic assay (CellTiter 96 AQueous One Solution), HepG2
Description: as §1, §2, §3

[4] = tested on: HaCat cells (immortalized human epidermal keratinocytes); experiment: Cytotoxic assay (CellTiter 96 AQueous One Solution), HaCat selectivity control
Description: as §1, §2, §3

[5] = tested on: MCF-7 cells (breast tumor cells); experiment: Cytotoxic assay (CellTiter 96 AQueous One Solution), MCF-7
Description: as §1, §2, §3

[6] = tested on: PC-3 cells (human prostate carcinoma); experiment: Cytotoxic assay (CellTiter 96 AQueous One Solution), PC-3
Description: as §1, §2, §3

[7] = tested on: PC-3, HeLa, Huh-7, HepG2, MCF-7 and HaCat cell lines; experiment: Cytotoxic assay, statements over the whole cell line panel; details: PTX-treated cell lines
Description: as §1, §2, §3

[8] = Cytotoxic assay (CellTiter 96 AQueous One Solution), HaCat selectivity control; details: human
Description: as §1, §2, §3

Molecule: (2S,3R)-5-acetyl-7,3-dihydroxy-2-(1-isopropenyl)-2,3-dihydrobenzofuran [compound 7]
- Cytotoxic activity (IC50), Huh-7 [1]: 79.98 ± 3.78 µg/mL
- Cytotoxic activity (IC50), HeLa [2]: 23.86 ± 2.5 µg/mL
- Cytotoxic effect in words, HeLa [2]: remarkable effect on the inhibition of HeLa cells
- Cytotoxic activity (IC50), HepG2 [3]: 74.62 ± 2.02 µg/mL
- Cytotoxic activity (IC50), HaCat [4]: 123.50 ± 15.17 µg/mL
- Cytotoxic activity (IC50), MCF-7 [5]: 107.20 ± 1.52 µg/mL
- Cytotoxic activity (IC50), PC-3 [6]: 80.36 ± 4.63 µg/mL

Molecule: CC(=O)O[C@H]1C(=O)[C@@]2(C)[C@H]([C@H](OC(=O)c3ccccc3)[C@]3(O)C[C@H](OC(=O)[C@H](O)[C@@H](NC(=O)c4ccccc4)c4ccccc4)C(C)=C1C3(C)C)[C@]1(OC(C)=O)CO[C@@H]1C[C@@H]2O [Paclitaxel, paclitaxel]
- IC50 ([1]; Homo sapiens, Huh-7, 48 h, read-out: Cytotoxic activity (IC50), Huh-7): 0.021 ± 0.00273 µg/mL (≈ 0.0246 µM)
- IC50 values range in words [7]: nanomolar (nM) range
- IC50 ([2]; Homo sapiens, HeLa, 48 h, read-out: Cytotoxic activity (IC50), HeLa): 0.017 ± 0.00103 µg/mL (≈ 0.0199 µM)
- IC50 ([3]; Homo sapiens, HepG2, 48 h, read-out: Cytotoxic activity (IC50), HepG2): 0.00857 µg/mL (≈ 0.01 µM)
- IC50 at 48 h [8]: 0.097 ± 0.0128 µg/mL (≈ 0.114 µM)
- IC50 ([5]; Homo sapiens, MCF7, 48 h, read-out: Cytotoxic activity (IC50), MCF-7): 0.018 ± 0.0035 µg/mL (≈ 0.0211 µM)
- IC50 ([6]; Homo sapiens, PC-3, 48 h, read-out: Cytotoxic activity (IC50), PC-3): 0.013 ± 0.00196 µg/mL (≈ 0.0152 µM)
